Measurements published in US20240075041A1, “TREATMENT OF EOSINOPHILIC DISORDERS WITH AVAPRITINIB” (Blueprint Medicines Corporation, priority 2019, published 2024).
Entries after “also recorded” stand apart in the source; their conditions may differ.

Legend:
eosinophils = experiment: Measurement of absolute eosinophils in Phase 1 clinical trial patients (routine blood test at C1D15); assay type: in vivo, human; settings: adult patients with AdvSM, oral Compound (I) 30 mg to 400 mg QD, C1D15 (after 2 weeks), baseline absolute eosinophil count >0.5, FIGS. 1-4
Method: The dose range of Compound (I) is between 30 mg and 400 mg. The patients with baseline absolute eosinophil count of >0.5.
The patients with baseline absolute eosinophil count of >0.5.
The dose range of Compound (I) is between 200 mg and 300 mg. The patients with baseline absolute eosinophil count of >0.5.
(§1) This is a Phase 1, open-label, study designed to evaluate the safety, tolerability, PK, PD, and preliminary antineoplastic activity of Compound (I), administered orally, in adult patients with advanced systemic mastocytosis (AdvSM) and relapsed or refractory myeloid malignancies.
(§2) The study consists of 2 parts: dose-escalation (Part 1) and expansion (Part 2). Approximately 25 patients were in Part 1 and approximately 55 patients were in Part 2.
A treatment cycle is 28 days in duration. Patients presented to the study center on C1D1 for the first dose of study drug and serial PK sampling, PD sample collection, vital sign measurement, electrocardiogram (ECG) monitoring, patient general impression of symptom severity (PGIS) and European Organization for Research and Treatment of Cancer Core Quality of Life Questionnaire (EORTC QLQ-C30), safety monitoring and adverse event (AE) recording.
Eosinophils in patients were measured at C1D15 (cycle 1, day 15) via a routine blood test, see, e.g., LaGow B et al., eds. PDR Lab Advisor. A Comprehensive Point-of-Care Guide for Over 600 Lab Tests. 1st ed. […]

KIT D816V = KIT D816V (Homo sapiens, UniProt P10721, D816V); experiment: Activity against KIT D816V in vitro; assay type: biochemical
Sequence of KIT D816V (P10721 26-976 D816V): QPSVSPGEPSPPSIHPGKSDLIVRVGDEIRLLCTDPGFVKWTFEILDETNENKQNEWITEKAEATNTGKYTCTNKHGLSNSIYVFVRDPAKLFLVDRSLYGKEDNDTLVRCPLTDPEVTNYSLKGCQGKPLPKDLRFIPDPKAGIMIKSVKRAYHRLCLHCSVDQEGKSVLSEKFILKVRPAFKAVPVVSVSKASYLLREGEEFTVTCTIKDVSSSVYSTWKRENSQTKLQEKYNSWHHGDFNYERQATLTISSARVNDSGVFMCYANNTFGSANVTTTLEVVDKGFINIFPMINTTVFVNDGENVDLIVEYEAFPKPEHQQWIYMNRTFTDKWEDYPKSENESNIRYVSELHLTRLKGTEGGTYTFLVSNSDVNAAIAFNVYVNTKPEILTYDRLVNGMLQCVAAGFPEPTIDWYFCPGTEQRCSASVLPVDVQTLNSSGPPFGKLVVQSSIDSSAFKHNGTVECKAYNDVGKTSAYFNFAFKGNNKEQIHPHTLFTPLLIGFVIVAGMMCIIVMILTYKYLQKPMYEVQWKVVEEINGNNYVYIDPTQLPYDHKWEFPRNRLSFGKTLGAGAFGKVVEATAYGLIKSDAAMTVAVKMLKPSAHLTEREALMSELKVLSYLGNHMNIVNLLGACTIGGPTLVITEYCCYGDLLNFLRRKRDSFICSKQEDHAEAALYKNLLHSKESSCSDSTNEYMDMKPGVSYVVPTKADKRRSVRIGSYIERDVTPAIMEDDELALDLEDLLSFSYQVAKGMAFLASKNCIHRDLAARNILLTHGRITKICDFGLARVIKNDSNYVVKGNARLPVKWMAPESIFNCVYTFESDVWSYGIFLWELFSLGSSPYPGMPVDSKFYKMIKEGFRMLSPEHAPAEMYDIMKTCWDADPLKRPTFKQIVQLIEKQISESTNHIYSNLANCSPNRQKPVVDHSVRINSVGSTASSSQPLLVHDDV

[1] = test system: tyrosine kinase inhibitor (TKI)-resistant mastocytoma model; experiment: TKI-resistant mastocytoma model in vivo
[2] = Toxicology and safety pharmacology studies; assay type: in vivo; settings: at active doses
[3] = Phase 1 dose escalation in advanced systemic mastocytosis (NCT02561988); assay type: in vivo; settings: patients with advanced systemic mastocytosis, Phase 1 study, oral
Excerpt: as §1, §2
Patients with AdvSM or a relapsed or refractory myeloid malignancy were enrolled in the dose escalation part of the study. A 3+3 dose-escalation design using cohorts of 3 patients were employed.
The first cohort of patients received Compound (I) at a starting dose of 30 mg once daily (QD). Dose escalation proceeded at increments up to 100% until ≥1 patient treated at a given dose level has a ≥Grade 2 non-hematologic AE or a Grade 4 hematologic AE and the AE (non-hematologic or hematologic) was not clearly attributable to a cause other than Compound (I) or the dose exceeds the highest dose determined to be safe in the ongoing Compound (I) first-in-human (FIH) study in GIST, BLU-285-1101.
Three patients were enrolled initially in each cohort and an additional 3 patients (for a total of 6) were enrolled when the cohort requires expansion due to dose-limiting toxicity (DLT). […]

activity against KIT D816V in vitro (KIT D816V): potent and selective activity
recommended Phase 2 dose (RP2D) [3]: 300 mg once a day (QD)
SMILES: Cn1cc(-c2cc3c(N4CCN(c5ncc([C@@](C)(N)c6ccc(F)cc6)cn5)CC4)ncnn3c2)cn1 [Compound (I), (S)-1-(4-fluorophenyl)-1-(2-(4-(6-(1-methyl-1H-pyrazol-4-yl)pyrrolo[2,1-f][1,2,4]triazin-4-yl)piperazin-yl)pyrimidin-5-yl)ethan-1-amine]
absolute eosinophil changes from baseline levels (eosinophils): significantly decreases number of absolute eosinophils; also recorded: effectively reduces eosinophil levels
growth inhibition in TKI-resistant mastocytoma model [1]: robust growth inhibition
tolerability [2]: tolerability at active doses
